{"source": "PubChem BioAssay AID2060895", "about": "(Molecular Pharmacology Branch, DTP, NCI, 2025)", "tested_on": "PDC 899932-113-R3-J6 complex spheroid viability", "assay": "Anticancer human tumor 899932-113-R3-J6-PDC patient-derived melanoma cell line growth inhibition [RAS]", "settings": "for IC50: curve of first compound; for viability, T/C: stronger effect = lower value", "outline": "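Agents were tested in combination matrices in half-log decrements from a top concentration at or near clinical Cmax (10 microM if undetermined). Targets were multi-cell spheroids of tumour lines plus HUVEC and MSC stromal cells.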"}
{"molecule": "CC1(C)CCC(Nc2ncc(C(F)(F)F)c(-c3c[nH]c4c(P(C)(C)=O)c(C#N)ccc34)n2)CN1", "note": "(centres undefined) + C#Cc1c(F)ccc2cc(O)cc(-c3ncc4c(N5CC6CCC(C5)N6)nc(OCC56CCCN5CC(F)C6)nc4c3F)c12;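 for viability, T/C: spheroids exposed to agents for seven days before readout; 100% = DMSO vehicle control wells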", "values": [{"measurement": "IC50", "setting": "second compound 0.0316 µM", "result": 0.0164, "unit": "µM"}, {"measurement": "IC50", "setting": "second compound 0.1 µM", "result": 0.0153, "unit": "µM"}, {"measurement": "IC50", "setting": "second compound 0.316 µM", "result": 0.0165, "unit": "µM"}, {"measurement": "IC50", "setting": "second compound 1 µM", "result": 0.0158, "unit": "µM"}, {"measurement": "IC50", "setting": "second compound 3.16 µM", "result": 0.0192, "unit": "µM"}, {"measurement": "IC50", "setting": "second compound 10 µM", "result": 0.0207, "unit": "µM"}, {"measurement": "viability, T/C", "setting": "second compound 0.0316 µM, first compound 0.000949 µM", "result": 100, "unit": "%"}, {"measurement": "viability, T/C", "setting": "second compound 0.0316 µM, first compound 0.003 µM", "result": 82.4, "unit": "%"}, {"measurement": "viability, T/C", "setting": "second compound 0.0316 µM, first compound 0.00949 µM", "result": 57.3, "unit": "%"}, {"measurement": "viability, T/C", "setting": "second compound 0.0316 µM, first compound 0.03 µM", "result": 45.7, "unit": "%"}, {"measurement": "viability, T/C", "setting": "second compound 0.0316 µM, first compound 0.0949 µM", "result": 13.2, "unit": "%"}, {"measurement": "viability, T/C", "setting": "second compound 0.0316 µM, first compound 0.3 µM", "result": 9.56, "unit": "%"}, {"measurement": "viability, T/C", "setting": "second compound 0.1 µM, first compound 0.000949 µM", "result": 97.2, "unit": "%"}, {"measurement": "viability, T/C", "setting": "second compound 0.1 µM, first compound 0.003 µM", "result": 79.1, "unit": "%"}, {"measurement": "viability, T/C", "setting": "second compound 0.1 µM, first compound 0.00949 µM", "result": 56.9, "unit": "%"}, {"measurement": "viability, T/C", "setting": "second compound 0.1 µM, first compound 0.03 µM", "result": 42.8, "unit": "%"}, {"measurement": "viability, T/C", "setting": "second compound 0.1 µM, first compound 0.0949 µM", "result": 14.3, "unit": "%"}, {"measurement": "viability, T/C", "setting": "second compound 0.1 µM, first compound 0.3 µM", "result": 7.89, "unit": "%"}, {"measurement": "viability, T/C", "setting": "second compound 0.316 µM, first compound 0.000949 µM", "result": 102, "unit": "%"}, {"measurement": "viability, T/C", "setting": "second compound 0.316 µM, first compound 0.003 µM", "result": 84.9, "unit": "%"}, {"measurement": "viability, T/C", "setting": "second compound 0.316 µM, first compound 0.00949 µM", "result": 53.5, "unit": "%"}, {"measurement": "viability, T/C", "setting": "second compound 0.316 µM, first compound 0.03 µM", "result": 47.5, "unit": "%"}, {"measurement": "viability, T/C", "setting": "second compound 0.316 µM, first compound 0.0949 µM", "result": 15.9, "unit": "%"}, {"measurement": "viability, T/C", "setting": "second compound 0.316 µM, first compound 0.3 µM", "result": 11.3, "unit": "%"}, {"measurement": "viability, T/C", "setting": "second compound 1 µM, first compound 0.000949 µM", "result": 104, "unit": "%"}, {"measurement": "viability, T/C", "setting": "second compound 1 µM, first compound 0.003 µM", "result": 79.4, "unit": "%"}, {"measurement": "viability, T/C", "setting": "second compound 1 µM, first compound 0.00949 µM", "result": 58, "unit": "%"}, {"measurement": "viability, T/C", "setting": "second compound 1 µM, first compound 0.03 µM", "result": 45.5, "unit": "%"}, {"measurement": "viability, T/C", "setting": "second compound 1 µM, first compound 0.0949 µM", "result": 13.5, "unit": "%"}, {"measurement": "viability, T/C", "setting": "second compound 1 µM, first compound 0.3 µM", "result": 9.51, "unit": "%"}, {"measurement": "viability, T/C", "setting": "second compound 3.16 µM, first compound 0.000949 µM", "result": 112, "unit": "%"}, {"measurement": "viability, T/C", "setting": "second compound 3.16 µM, first compound 0.003 µM", "result": 84.9, "unit": "%"}, {"measurement": "viability, T/C", "setting": "second compound 3.16 µM, first compound 0.00949 µM", "result": 64.6, "unit": "%"}, {"measurement": "viability, T/C", "setting": "second compound 3.16 µM, first compound 0.03 µM", "result": 47.1, "unit": "%"}, {"measurement": "viability, T/C", "setting": "second compound 3.16 µM, first compound 0.0949 µM", "result": 13.6, "unit": "%"}, {"measurement": "viability, T/C", "setting": "second compound 3.16 µM, first compound 0.3 µM", "result": 8.79, "unit": "%"}, {"measurement": "viability, T/C", "setting": "second compound 10 µM, first compound 0.000949 µM", "result": 108, "unit": "%"}, {"measurement": "viability, T/C", "setting": "second compound 10 µM, first compound 0.003 µM", "result": 87.6, "unit": "%"}, {"measurement": "viability, T/C", "setting": "second compound 10 µM, first compound 0.00949 µM", "result": 55.1, "unit": "%"}, {"measurement": "viability, T/C", "setting": "second compound 10 µM, first compound 0.03 µM", "result": 58.9, "unit": "%"}, {"measurement": "viability, T/C", "setting": "second compound 10 µM, first compound 0.0949 µM", "result": 11.1, "unit": "%"}, {"measurement": "viability, T/C", "setting": "second compound 10 µM, first compound 0.3 µM", "result": 6.89, "unit": "%"}]}
{"molecule": "C[C@@H](NC(=O)c1ncnc(N)c1Cl)c1ncc(C(=O)Nc2cc(C(F)(F)F)c(Cl)cn2)s1", "note": "+ C#Cc1c(F)ccc2cc(O)cc(-c3ncc4c(N5CC6CCC(C5)N6)nc(OCC56CCCN5CC(F)C6)nc4c3F)c12", "values": [{"measurement": "IC50", "setting": "second compound 0.0316 µM", "result": 6.59, "unit": "µM"}, {"measurement": "IC50", "setting": "second compound 0.1 µM", "result": 6.77, "unit": "µM"}, {"measurement": "IC50", "setting": "second compound 0.316 µM", "result": 6.87, "unit": "µM"}, {"measurement": "IC50", "setting": "second compound 1 µM", "result": 7.39, "unit": "µM"}, {"measurement": "IC50", "setting": "second compound 3.16 µM", "result": 7.73, "unit": "µM"}, {"measurement": "IC50", "setting": "second compound 10 µM", "result": 6.2, "unit": "µM"}, {"measurement": "viability, T/C", "setting": "second compound 0.0316 µM, first compound 0.0316 µM", "result": 120, "unit": "%"}, {"measurement": "viability, T/C", "setting": "second compound 0.0316 µM, first compound 0.1 µM", "result": 151, "unit": "%"}, {"measurement": "viability, T/C", "setting": "second compound 0.0316 µM, first compound 0.316 µM", "result": 149, "unit": "%"}, {"measurement": "viability, T/C", "setting": "second compound 0.0316 µM, first compound 1 µM", "result": 150, "unit": "%"}, {"measurement": "viability, T/C", "setting": "second compound 0.0316 µM, first compound 3.16 µM", "result": 99.2, "unit": "%"}, {"measurement": "viability, T/C", "setting": "second compound 0.0316 µM, first compound 10 µM", "result": 22.1, "unit": "%"}, {"measurement": "viability, T/C", "setting": "second compound 0.1 µM, first compound 0.0316 µM", "result": 130, "unit": "%"}, {"measurement": "viability, T/C", "setting": "second compound 0.1 µM, first compound 0.1 µM", "result": 133, "unit": "%"}, {"measurement": "viability, T/C", "setting": "second compound 0.1 µM, first compound 0.316 µM", "result": 153, "unit": "%"}, {"measurement": "viability, T/C", "setting": "second compound 0.1 µM, first compound 1 µM", "result": 151, "unit": "%"}, {"measurement": "viability, T/C", "setting": "second compound 0.1 µM, first compound 3.16 µM", "result": 94.5, "unit": "%"}, {"measurement": "viability, T/C", "setting": "second compound 0.1 µM, first compound 10 µM", "result": 27.2, "unit": "%"}, {"measurement": "viability, T/C", "setting": "second compound 0.316 µM, first compound 0.0316 µM", "result": 132, "unit": "%"}, {"measurement": "viability, T/C", "setting": "second compound 0.316 µM, first compound 0.1 µM", "result": 123, "unit": "%"}, {"measurement": "viability, T/C", "setting": "second compound 0.316 µM, first compound 0.316 µM", "result": 145, "unit": "%"}, {"measurement": "viability, T/C", "setting": "second compound 0.316 µM, first compound 1 µM", "result": 140, "unit": "%"}, {"measurement": "viability, T/C", "setting": "second compound 0.316 µM, first compound 3.16 µM", "result": 94.2, "unit": "%"}, {"measurement": "viability, T/C", "setting": "second compound 0.316 µM, first compound 10 µM", "result": 28.7, "unit": "%"}, {"measurement": "viability, T/C", "setting": "second compound 1 µM, first compound 0.0316 µM", "result": 138, "unit": "%"}, {"measurement": "viability, T/C", "setting": "second compound 1 µM, first compound 0.1 µM", "result": 139, "unit": "%"}, {"measurement": "viability, T/C", "setting": "second compound 1 µM, first compound 0.316 µM", "result": 158, "unit": "%"}, {"measurement": "viability, T/C", "setting": "second compound 1 µM, first compound 1 µM", "result": 151, "unit": "%"}, {"measurement": "viability, T/C", "setting": "second compound 1 µM, first compound 3.16 µM", "result": 99.2, "unit": "%"}, {"measurement": "viability, T/C", "setting": "second compound 1 µM, first compound 10 µM", "result": 32.5, "unit": "%"}, {"measurement": "viability, T/C", "setting": "second compound 3.16 µM, first compound 0.0316 µM", "result": 124, "unit": "%"}, {"measurement": "viability, T/C", "setting": "second compound 3.16 µM, first compound 0.1 µM", "result": 150, "unit": "%"}, {"measurement": "viability, T/C", "setting": "second compound 3.16 µM, first compound 0.316 µM", "result": 155, "unit": "%"}, {"measurement": "viability, T/C", "setting": "second compound 3.16 µM, first compound 1 µM", "result": 172, "unit": "%"}, {"measurement": "viability, T/C", "setting": "second compound 3.16 µM, first compound 3.16 µM", "result": 117, "unit": "%"}, {"measurement": "viability, T/C", "setting": "second compound 3.16 µM, first compound 10 µM", "result": 30.7, "unit": "%"}, {"measurement": "viability, T/C", "setting": "second compound 10 µM, first compound 0.0316 µM", "result": 136, "unit": "%"}, {"measurement": "viability, T/C", "setting": "second compound 10 µM, first compound 0.1 µM", "result": 145, "unit": "%"}, {"measurement": "viability, T/C", "setting": "second compound 10 µM, first compound 0.316 µM", "result": 154, "unit": "%"}, {"measurement": "viability, T/C", "setting": "second compound 10 µM, first compound 1 µM", "result": 166, "unit": "%"}, {"measurement": "viability, T/C", "setting": "second compound 10 µM, first compound 3.16 µM", "result": 91.6, "unit": "%"}, {"measurement": "viability, T/C", "setting": "second compound 10 µM, first compound 10 µM", "result": 20.5, "unit": "%"}]}
